Experimental data taken from US11236106B2, “Cycloalkane-1,3-diamine derivative” (Daiichi Sankyo Company, Limited, priority 2018, dated 2022).
Structures can show the parent of a compound that is named as a salt. Where two headings read alike, the source gives them in different places.

What was measured:
[1] = tested on: MV-4-11 cells; details: read-out: GI50, cell growth inhibitory activity, MV-4-11, day 7, cultured 7 days, assigned by order and values, Hydrochloride
Description: (§2) RPMI1640 medium supplemented with 10% FBS was used as a culture medium for each cells (MV-4-11, MOLM-13 cells, human AML cells, K562 cells, human CML cells). […] The prepared drug-containing plate was stored at −30° C. until use, and thawed before use.
(§3) The suspension of each cells was prepared with 10% FBS RPMI1640 culture medium so as to be 1000 cells/mL (K562) or 10000 cells/mL (MV-4-11, MOLM-13), and seeded on the drug-containing plate (40 μL/well) (day 0). The cells were cultured for additional 3 or 7 days. ATP measurement reagent (CellTiter-Glo (registered trademark, Promega Corporation) 2.0 Assay, model number G9242, Promega Corporation) was added to each well at 10 μL/well, on the day of the drug addition (day 0) and 3 days (day 3) or 7 days (day 7) after the drug addition. After affixing a black sticker on the bottom surface, the mixture was stirred using a microplate mixing deaeration machine (model name, Weltornado FK-62, Sakaki Dengyo Co., Ltd.) (stirring conditions, revolution 9, rotation 7, time 12).
(§4) The cell growth of the drug-added group from day 0 to day 3 or day 7 was calculated as T/C %, when the cell growth of the drug-free group was considered as 100%.

[2] = tested on: K562 cells; experiment: cells; details: Homo sapiens, K562, 168 h, read-out: GI50, cell growth inhibitory activity, K562, day 7
Description: as §2, §3, §4

[3] = target: T1, menin and MLL (menin, Flag tagged; biotinylated MLL1 peptide 1-46aa) (Homo sapiens, UniProt O00255); experiment: biochemical; details: IC50, binding inhibitory activity between menin and MLL, AlphaLISA; 1 nM menin, 10 nM biotinylated MLL1 peptide
T1 sequence (O00255 1-610): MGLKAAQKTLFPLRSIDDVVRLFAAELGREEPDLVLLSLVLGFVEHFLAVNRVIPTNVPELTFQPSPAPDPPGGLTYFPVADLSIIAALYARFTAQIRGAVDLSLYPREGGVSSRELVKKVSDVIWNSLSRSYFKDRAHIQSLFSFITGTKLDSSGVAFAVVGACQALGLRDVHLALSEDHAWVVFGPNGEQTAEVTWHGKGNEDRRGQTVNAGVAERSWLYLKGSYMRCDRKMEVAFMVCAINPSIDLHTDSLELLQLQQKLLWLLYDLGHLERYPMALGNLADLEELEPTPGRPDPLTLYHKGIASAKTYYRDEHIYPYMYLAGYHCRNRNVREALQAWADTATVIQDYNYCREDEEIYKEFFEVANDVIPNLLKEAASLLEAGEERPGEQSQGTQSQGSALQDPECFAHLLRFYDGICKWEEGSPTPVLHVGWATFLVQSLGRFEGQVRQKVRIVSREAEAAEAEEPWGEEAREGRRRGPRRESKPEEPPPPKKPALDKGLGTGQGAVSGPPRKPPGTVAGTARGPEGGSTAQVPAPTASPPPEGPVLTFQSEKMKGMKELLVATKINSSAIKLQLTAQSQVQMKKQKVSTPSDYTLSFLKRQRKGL
Description: Then, the fluorescence signal by AlphaLISA (registered trademark, PerkinElmer Co., Ltd.) was measured using a plate reader (PerkinElmer Co., Ltd., EnVisionXcite).

[4] = tested on: K562 cells; details: read-out: GI50, cell growth inhibitory activity, K562, day 7, cultured 7 days, assigned by order and values
Description: as §2, §3, §4

[5] = tested on: MLL-AF9-overexpressing AML-like cells (MA9 cells); experiment: Differentiation-inducing activity in MLL-AF9-overexpressing AML-like cells (flow cytometry of Gr-1 and cKit); assay type: cell-based, mouse; details: 7 days, 5 or 20 nM (Ex. 25, 27), 150 or 300 nM (Ex. 26), 50 or 100 nM (Ex. 22)
Description: The human MLL-AF9 fusion gene was introduced into cKit-positive mononuclear cells isolated from the myeloid of C57BL6 mouse, by retrovirus infection. MLL-AF9-overexpressing AML-like cells (MA9 cells) that acquired abnormal growth ability were established by liquid-culturing the cells after virus infection for a long period of time. Serum-free medium (GlutaMax, P/S, Stem Pro-34 medium containing 10 ng/ml mIL-3, ng/mL mSCF and 10 ng/mL human Oncostatin M) was used as a culture medium.
For the control group, DMSO was added thereto at a final concentration of 0.1% (2 μL/well) (day 0). After culturing for 7 days (day 7), the cells were collected, and blocked with 5% FBS/PBS containing 10% Mouse BD Fc Block (BD) for 10 minutes at room temperature, and then any of various antibodies (Gr-1-FITC or CD117 (cKit)-APC: Biolegend) was added thereto at a final concentration of 0.4 μg/sample, and the mixture was reacted on ice for 30 minutes. Then, dead cell staining dye DAPI (0.2 mg/mL) was added thereto at so as to be […], and the reaction was carried out on ice for additional 2 minutes under shading. Then, the expression level of each surface antigen of the cells was measured by NovoCyte flow cytometer (LMS). The obtained data were analyzed by FlowJo software (Becton Dickinson), and the rate of each surface antigen-expressing cells in the living cells excluding dead cells was graphed.

[6] = tested on: MV-4-11 cells; experiment: Antitumor activity in MV-4-11 cell subcutaneous transplant model (Experimental Example 3-2); assay type: in vivo, mice; details: Exp. Ex. 3-2, oral, 34 days after transplantation
Description: MV-4-11 cells were purchased from ATCC. The female FOX CHASE SCID C.B.17/Icr-scid/scidJcl mice were purchased from Claire Japan. […] The compound was administered as a suspension in 0.5% MC. For the compound-free group, 0.5% MC was administered as a solvent. The estimated individual tumor volume was measured from the day of the grouping to 34 days after the transplantation (test end date).
Tumor growth inhibitory rate %=(1−TVCt/TVCc)×100 TVC=(Individual tumor volume on the test end date)−(Individual tumor volume on the grouping date) TVCt: TVC mean value of the compound administration group TVCc: TVC mean value of the compound-free group

[7] = tested on: MV-4-11 cells; experiment: cells; details: Homo sapiens, MV4-11, 168 h, read-out: GI50, cell growth inhibitory activity, MV-4-11, day 7
Description: as §2, §3, §4

[8] = tested on: OCI-AML3 cells; experiment: cells; details: Homo sapiens, OCI-AML-3, 168 h, read-out: GI50 (nM) Day 7
Description: The cells were purchased from Deutsche Sammlung von Mikroorganismen und Zellkulturen GmbH (DSMZ). […] The prepared drug-containing plate was stored at −30° C. until use, and thawed before use.
The suspension of the cells was prepared with 10% FBS RPMI1640 culture medium so as to be 50000 cells/mL, and seeded on the drug-containing plate (40 μL/well) (day 0). The cells were cultured for additional 7 days. ATP measurement reagent (CellTiter-Glo (registered trademark, Promega Corporation) 2.0 Assay, model number G9242, Promega Corporation) was added to each well at 10 μL/well, on the day of the drug addition (day 0) and 7 days (day 7) after the drug addition. After affixing a black sticker on the bottom surface, the mixture was stirred using a microplate mixing deaeration machine (model name, Weltornado FK-62, Sakaki Dengyo Co., Ltd.) (stirring conditions, revolution 9, rotation 7, time 12).
The cell growth of the drug-added group from day 0 to day 7 was calculated as T/C %, when the cell growth of the drug-free group was considered as 100%. GI5o was calculated by GROWTH function (exponential regression) using two concentrations sandwiching the concentration (T/C %=50%) that suppresses cell growth by 50%, and T/C %.

[9] = tested on: K562 cells; experiment: Cell growth inhibitory activity, K562 cells (Experimental Example 7, 96-well); assay type: cell-based; details: Homo sapiens, 168 h, day 7, linear regression
Description: (§1) A solution of each concentration (MV-4-11 and MOLM-13: common ratio of 3, 9 concentrations from the final concentration of 1 μM, K562: common ratio of 3, 9 concentrations from the final concentration of 10 μM) of a drug (the compound of Example 131) or a growth medium containing 0.2% DMSO was added to each well at 50 μL/well, and the cells were cultured for additional 7 days.

[10] = tested on: MV-4-11 cells; experiment: Cell growth inhibitory activity, MV-4-11 cells (Experimental Example 7, 96-well); assay type: cell-based; details: Homo sapiens, MV4-11, 168 h, day 7, Sigmoid Emax model
Description: as §1

[11] = tested on: MOLM-13 cells; experiment: Cell growth inhibitory activity, MOLM-13 cells (Experimental Example 7, 96-well); assay type: cell-based; details: Homo sapiens, 168 h, day 7, Sigmoid Emax model
Description: as §1

SMILES: COc1nc(N(C)C2CC(NCC3CCC(c4cc(OC)c(OC)nn4)CC3)CC2O)c2cc(CC(F)(F)F)sc2n1 (single isomer, unassigned) [Example 128A, Hydrochloride]
- GI50 [1]: 728 nM
- GI50 [2]: > 5000 nM
- IC50 [3]: 18.4 nM

SMILES: COc1nc(N(C)C2CC(NCC3CCC(c4cc(OC)c(OC)nn4)CC3)CC2O)c2cc(CC(F)(F)F)sc2n1 (single isomer, unassigned) [Example 128B, Hydrochloride]
- IC50 [3]: 6.6 nM
- GI50 [4]: > 5 µM

SMILES: COc1cc(-c2ccc(CN[C@H]3C[C@@H](O)[C@@H](N(C)c4ncnc5sc(CC(F)(F)F)cc45)C3)cc2)nnc1OC [Example 25, (1R,2S,4R)-4-({[4-(5,6-dimethoxypyridazin-3-yl)phenyl]methyl}amino)-2-{methyl[6-(2,2,2-trifluoroethyl)thieno[2,3-d]pyrimidin-4-yl]amino}cyclopentan-1-ol Hydrochloride]
- rate of the myeloid cell differentiation antigen Gr-1-expressing cells in living cells ([5]; versus control group (FIG. 10)): increased the rate of Gr-1-positive cells
- rate of the cKit-expressing cells in living cells ([5]; versus control group (FIG. 11)): reduced the rate of cKit-positive cells
- Estimated tumor volume (test end date) Mean ± S.E. ([6]; qdx18, 25 mg/kg/day): 250 ± 38
- Estimated tumor volume (test end date) Mean ± S.E. ([6]; qdx18, 50 mg/kg/day): 0 ± 0
- Estimated tumor volume (test end date) Mean ± S.E. ([6]; qdx18, 100 mg/kg/day): 0 ± 0

SMILES: COc1nc(N(C)[C@H]2C[C@@H](NCc3ccc(-c4cc(OC)c(OC(F)F)nn4)cc3)C[C@H]2O)c2cc(CC(F)(F)F)sc2n1 [Example 119, (1R,2S,4R)-4-[({4-[6-(difluoromethoxy)-5-methoxypyridazin-3-yl]phenyl}methy)amino]-2-{[2-methoxy-6-(2,2,2-trifluoroethyl)thieno[2,3-d]pyrimidin-4-yl](methyl)amino}cyclopentan-1-ol hydrochloride]
- GI50 [2]: 859 nM
- GI50 [7]: 15.7 nM
- GI50 [8]: 33 nM
- IC50 [3]: 0.7 nM

SMILES: COc1cc(-c2ccc(CN[C@H]3C[C@@H](O)[C@@H](N(C)c4ncnc5sc(CC(F)(F)F)cc45)C3)cc2)nnc1OC [Example 131, (1R,2S,4R)-4-({[4-(5,6-dimethoxypyridazin-3-yl)phenyl]methyl}amino)-2-{methyl[6-(2,2,2-trifluoroethyl)thieno[2,3-d]pyrimidin-4-yl]amino}cyclopentan-1-ol Succinate]
- GI50 [9]: 9.11 µM
- GI50 [10]: 1.97 nM
- GI50 [11]: 10.1 nM
